From ChEMBL document CHEMBL1687743, “Intravenous doripenem at 500 milligrams versus levofloxacin at 250 milligrams, with an option to switch to oral therapy, for treatment of complicated lower urinary tract infection and pyelonephritis” (Antimicrob Agents Chemother, 2009)

Columns and labels:
Escherichia coli [1] = assay: Antibacterial activity against Escherichia coli infected in microbiologically evaluable patient with UTI assessed as cure rate at 250 mg, iv qd for 10 days measured at test-of-cure visit; format: functional
Escherichia coli [2] = assay: Antibacterial activity against levofloxacin-resistant Escherichia coli infected in microbiologically evaluable patient with UTI assessed as cure rate at 250 mg, iv qd for 10 days measured at test-of-cure visit; format: functional
Escherichia coli [3] = assay: Antibacterial activity against levofloxacin-resistant Escherichia coli infected in clinically evaluable patient with UTI assessed as cure rate at 250 mg, iv qd for 10 days measured at test-of-cure visit; format: functional
Klebsiella pneumoniae [4] = assay: Antibacterial activity against Klebsiella pneumoniae infected in microbiologically evaluable patient with UTI assessed as cure rate at 250 mg, iv qd for 10 days measured at test-of-cure visit; format: functional
Proteus mirabilis [5] = assay: Antibacterial activity against Proteus mirabilis infected in microbiologically evaluable patient with UTI assessed as cure rate at 250 mg, iv qd for 10 days measured at test-of-cure visit; format: functional
Escherichia coli [6] = assay: Antibacterial activity against Escherichia coli isolated from patient with urinary tract infection receiving drug at 250 mg, iv qd for 10 days measured after post drug therapy; format: functional; details: Urine, 240 h
Klebsiella pneumoniae [7] = assay: Antibacterial activity against Klebsiella pneumoniae isolated from patient with urinary tract infection receiving drug at 250 mg, iv qd for 10 days measured after post drug therapy; format: functional; details: Urine, 240 h
Proteus mirabilis [8] = assay: Antibacterial activity against Proteus mirabilis isolated from patient with urinary tract infection receiving drug at 250 mg, iv qd for 10 days measured after post drug therapy; format: functional; details: Urine, 240 h
Pseudomonas aeruginosa [9] = assay: Antibacterial activity against Pseudomonas aeruginosa isolated from patient with urinary tract infection receiving drug at 250 mg, iv qd for 10 days measured after post drug therapy; format: functional; details: Urine, 240 h
Enterococcus faecalis = assay: Antibacterial activity against levofloxacin-resistant Enterococcus faecalis
Escherichia coli [10] = assay: Antibacterial activity against levofloxacin-resistant Escherichia coli; format: functional
Proteus mirabilis [11] = assay: Antibacterial activity against levofloxacin-resistant Proteus mirabilis; format: functional
Pseudomonas aeruginosa [12] = assay: Antibacterial activity against levofloxacin-resistant Pseudomonas aeruginosa
Homo sapiens [13] = assay: Treatment emergent adverse event in intent-to-treat patient with complicated urinary tract infection assessed as headache at 250 […], iv qd for 10 days; format: ADME, organism-based, Urine; design: route intravenous; details: in vivo, 240 h
Homo sapiens [14] = assay: Treatment emergent adverse event in intent-to-treat patient with complicated urinary tract infection assessed as constipation at 250 […], iv qd for 10 days; format: organism-based; design: route intravenous; details: in vivo, 240 h
Homo sapiens [15] = assay: Treatment emergent adverse event in intent-to-treat patient with complicated urinary tract infection assessed as diarrhea at 250 […], iv qd for 10 days; format: organism-based; design: route intravenous; details: in vivo, 240 h
Homo sapiens [16] = assay: Treatment emergent adverse event in intent-to-treat patient with complicated urinary tract infection assessed as vomiting at 250 […], iv qd for 10 days; format: ADME, organism-based, Urine; design: route intravenous; details: in vivo, 240 h
Homo sapiens [17] = assay: Treatment emergent adverse event in intent-to-treat patient with complicated urinary tract infection assessed as upper abdominal pain at 250 […], iv qd for 10 days; format: ADME, organism-based, Urine; design: route intravenous; details: in vivo, 240 h
Homo sapiens [18] = assay: Treatment emergent adverse event in intent-to-treat patient with complicated urinary tract infection assessed as nausea at 250 […], iv qd for 10 days; format: ADME, organism-based, Urine; design: route intravenous; details: in vivo, 240 h
Homo sapiens [19] = assay: Treatment emergent adverse event in intent-to-treat patient with complicated urinary tract infection assessed as phlebitis at 250 […], iv qd for 10 days; format: organism-based; design: route intravenous; details: in vivo, 240 h
Homo sapiens [20] = assay: Treatment emergent adverse event in intent-to-treat patient with complicated urinary tract infection assessed as insomnia at 250 […], iv qd for 10 days; format: ADME, organism-based, Urine; design: route intravenous; details: in vivo, 240 h
Homo sapiens [21] = assay: Treatment emergent adverse event in intent-to-treat patient with complicated urinary tract infection assessed as urinary tract infection at 250 […], iv qd for 10 days; format: ADME, organism-based; design: route intravenous; details: in vivo, 240 h
Homo sapiens [22] = assay: Treatment emergent adverse event in intent-to-treat patient with complicated urinary tract infection assessed as asymptomatic bacteriuria at 250 […], iv qd for 10 days; format: organism-based, Urine; design: route intravenous; details: in vivo, 240 h
Homo sapiens [23] = assay: Treatment emergent adverse event in intent-to-treat patient with complicated urinary tract infection assessed as back pain at 250 […], iv qd for 10 days; format: organism-based; design: route intravenous; details: in vivo, 240 h
Homo sapiens [24] = assay: Treatment emergent adverse event in intent-to-treat patient with complicated urinary tract infection assessed as hypokalemia at 250 […], iv qd for 10 days; format: ADME, organism-based, Urine; design: route intravenous; details: in vivo, 240 h
Homo sapiens [25] = assay: Treatment emergent adverse event in intent-to-treat patient with complicated urinary tract infection assessed as abdominal pain at 250 […], iv qd for 10 days; format: organism-based; design: route intravenous; details: in vivo, 240 h
Homo sapiens [26] = assay: Treatment emergent adverse event in intent-to-treat patient with complicated urinary tract infection assessed as >=1 adverse event at 250 […], iv qd for 10 days; format: organism-based, Urine; design: dose 250 mg/kg, route intravenous; details: in vivo, 240 h
Homo sapiens [27] = assay: Drug related treatment emergent adverse event in intent-to-treat patient with complicated urinary tract infection assessed as >=1 adverse event at 250 […], iv qd for 10 days; format: toxicity, organism-based; design: dose 250 mg/kg, route intravenous; details: in vivo, 240 h
Homo sapiens [28] = assay: Drug related treatment emergent adverse event in intent-to-treat patient with complicated urinary tract infection assessed as headache at 250 […], iv qd for 10 days; format: toxicity, organism-based, Urine; design: dose 250 […], route intravenous; details: in vivo, 240 h
Homo sapiens [29] = assay: Drug related treatment emergent adverse event in intent-to-treat patient with complicated urinary tract infection assessed as diarrhea at 250 […], iv qd for 10 days; format: toxicity, organism-based; design: dose 250 […], route intravenous; details: in vivo, 240 h
Homo sapiens [30] = assay: Drug related treatment emergent adverse event in intent-to-treat patient with complicated urinary tract infection assessed as upper abdominal pain at 250 […], iv qd for 10 days; format: toxicity, organism-based; design: dose 250 […], route intravenous; details: in vivo, 240 h
Homo sapiens [31] = assay: Drug related treatment emergent adverse event in intent-to-treat patient with complicated urinary tract infection assessed as nausea at 250 […], iv qd for 10 days; format: toxicity, organism-based, Urine; design: dose 250 […], route intravenous; details: in vivo, 240 h
Homo sapiens [32] = assay: Drug related treatment emergent adverse event in intent-to-treat patient with complicated urinary tract infection assessed as phlebitis at 250 […], iv qd for 10 days; format: toxicity, organism-based, Urine; design: dose 250 […], route intravenous; details: in vivo, 240 h

Question: How did the Activity (Escherichia coli [1]) turn out when C[C@H]1COc2c(N3CCN(C)CC3)c(F)cc3c(=O)c(C(=O)O)cn1c23.C[C@H]1COc2c(N3CCN(C)CC3)c(F)cc3c(=O)c(C(=O)O)cn1c23.O [LEVOFLOXACIN] was run?
Answer: The Activity was 87.2%.

Question: And the Activity (Escherichia coli [2])?
Answer: The Activity was 29%.

Question: What about the Activity (Escherichia coli [3]) of the same compound?
Answer: The Activity was 33%.

Question: And the Activity (Klebsiella pneumoniae [4])?
Answer: The Activity was 62.5%.

Question: And the Activity (Proteus mirabilis [5])?
Answer: Its Activity is 86.7%.

Question: And the MIC (Escherichia coli [6])?
Answer: The MIC was 0.25 µg/mL.

Question: And the MIC (Klebsiella pneumoniae [7])?
Answer: The MIC was 2 µg/mL.

Question: What about the MIC (Proteus mirabilis [8]) of the same compound?
Answer: Its MIC is 0.25 µg/mL.

Question: What about the MIC (Pseudomonas aeruginosa [9]) of the same compound?
Answer: Its MIC is 0.25 µg/mL.

Question: What about the MIC (Enterococcus faecalis) of the same compound?
Answer: The MIC was 16 µg/mL.

Question: And the MIC (Escherichia coli [10])?
Answer: The MIC was 32 µg/mL.

Question: What about the MIC (Proteus mirabilis [11]) of the same compound?
Answer: The MIC was 32 µg/mL.

Question: And the MIC (Pseudomonas aeruginosa [12])?
Answer: Its MIC is 32 µg/mL.

Question: What about the Activity (Homo sapiens [13]) of the same compound?
Answer: The Activity was 14.5%.

Question: What about the Activity (Homo sapiens [14]) of the same compound?
Answer: The Activity was 4.8%.

Question: What about the Activity (Homo sapiens [15]) of the same compound?
Answer: The Activity was 9.9%.

Question: What about the Activity (Homo sapiens [16]) of the same compound?
Answer: Its Activity is 4.3%.

Question: What about the Activity (Homo sapiens [17]) of the same compound?
Answer: Its Activity is 3.5%.

Question: What about the Activity (Homo sapiens [18]) of the same compound?
Answer: Its Activity is 5.9%.

Question: What about the Activity (Homo sapiens [19]) of the same compound?
Answer: The Activity was 4%.

Question: What about the Activity (Homo sapiens [20]) of the same compound?
Answer: The Activity was 3%.

Question: And the Activity (Homo sapiens [21])?
Answer: Its Activity is 1.6%.

Question: What about the Activity (Homo sapiens [22]) of the same compound?
Answer: Its Activity is 1.1%.

Question: What about the Activity (Homo sapiens [23]) of the same compound?
Answer: The Activity was 4.6%.

Question: And the Activity (Homo sapiens [24])?
Answer: Its Activity is 3.5%.

Question: What about the Activity (Homo sapiens [25]) of the same compound?
Answer: The Activity was 3.5%.

Question: And the Activity (Homo sapiens [26])?
Answer: Its Activity is 60%.

Question: What about the Activity (Homo sapiens [27]) of the same compound?
Answer: The Activity was 25%.

Question: What about the Activity (Homo sapiens [28]) of the same compound?
Answer: Its Activity is 2.7%.

Question: And the Activity (Homo sapiens [29])?
Answer: Its Activity is 5.9%.

Question: What about the Activity (Homo sapiens [30]) of the same compound?
Answer: Its Activity is 2.2%.

Question: What about the Activity (Homo sapiens [31]) of the same compound?
Answer: Its Activity is 1.6%.

Question: What about the Activity (Homo sapiens [32]) of the same compound?
Answer: The Activity was 3%.
